Columns and labels:
Experiment in all cases: relative viability (nuclei count vs DMSO), 5 days (fraction); higher = more cells survive
Motesanib + OSI-027 = compound: CC1(C)CNc2cc(NC(=O)c3cccnc3NCc3ccncc3)ccc21 [Motesanib] + COc1cccc2cc(-c3nc([C@H]4CC[C@H](C(=O)O)CC4)n4ncnc(N)c34)[nH]c12 [OSI-027] (partner 0.5 µM)
Method in brief: (§1)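 Lung cancer cell lines in 1536-well plates got either a single drug or a fixed anchor-drug dose together with five library-drug doses (not always all listed) in √10 steps, by pin tool, on the day after seeding. Nuclei were counted after 5 days, and relative viability is the treated-to-vehicle ratio of nuclei counts. Values are medians of duplicate plates.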

[1] = compound: C[C@@]1(C(=O)Nc2ccc(F)nc2)CCCN1c1nc(Nc2cc(C3CC3)n[nH]2)c2cccn2n1 + CC1(C)CCC(c2ccc(Cl)cc2)=C(CN2CCN(c3ccc(C(=O)NS(=O)(=O)c4ccc(N[C@H](CCN5CCOCC5)CSc5ccccc5)c(S(=O)(=O)C(F)(F)F)c4)cc3)CC2)C1 [Navitoclax] (partner 0.5 µM)
Method in brief: as §1

[2] = compound: C[C@@]1(C(=O)Nc2ccc(F)nc2)CCCN1c1nc(Nc2cc(C3CC3)n[nH]2)c2cccn2n1 + CS(=O)(=O)N1CCN(Cc2cc3nc(-c4cccc5[nH]ncc45)nc(N4CCOCC4)c3s2)CC1 [Pictilisib] (partner 1 µM)
Method in brief: as §1

[3] = compound: C[C@@]1(C(=O)Nc2ccc(F)nc2)CCCN1c1nc(Nc2cc(C3CC3)n[nH]2)c2cccn2n1 + COc1cccc2cc(-c3nc([C@H]4CC[C@H](C(=O)O)CC4)n4ncnc(N)c34)[nH]c12 [OSI-027] (partner 0.5 µM)
Method in brief: as §1

UMC-11
relative viability (Motesanib + OSI-027; first compound 0.01 µM): 0.461
relative viability (Motesanib + OSI-027; first compound 0.03162 µM): 0.466
relative viability (Motesanib + OSI-027; first compound 0.1 µM): 0.38
relative viability (Motesanib + OSI-027; first compound 0.3162 µM): 0.503
relative viability (Motesanib + OSI-027; first compound 1 µM): 0.51
relative viability ([1]; first compound 0.04 µM): 0.365
relative viability ([1]; first compound 0.1265 µM): 0.293
relative viability ([1]; first compound 0.4 µM): 0.249
relative viability ([1]; first compound 1.265 µM): 0.269
relative viability ([2]; first compound 0.04 µM): 0.776
relative viability ([2]; first compound 0.1265 µM): 0.868
relative viability ([2]; first compound 0.4 µM): 0.805
relative viability ([2]; first compound 1.265 µM): 0.723
relative viability ([3]; first compound 0.04 µM): 0.531
relative viability ([3]; first compound 0.1265 µM): 0.416
relative viability ([3]; first compound 0.4 µM): 0.485
relative viability ([3]; first compound 1.265 µM): 0.37

From the supplement of paper PMC10307832
